Values joined by “and” are separate entries in the source; they are usually repeats but may differ in a detail not shown here. Equal entries are not always repeated. Where two headings read alike, the source gives them in different places.
How the values were obtained:
CDK12–cyclin K and DDB1 [1] = target: T1, CDK12–cyclin K and DDB1 (Homo sapiens, UniProt Q16531+Q9NYV4, K965R); assay: TR-FRET ternary complex formation assay (compound titration); format: binding
T1 construct: His6–CDK12 (a.a. 713–1,052); full-length or beta-propeller B domain deletion (ΔBPB: a.a. 396–705 deleted) constructs of His6–DDB1ΔBPB, StrepII–Avi–DDB1, or His6–Spy–DDB1; made in house; host or cells: Trichoplusia ni High Five insect cells (baculovirus)
T1 sequence (Q9NYV4 713-1052 K965R): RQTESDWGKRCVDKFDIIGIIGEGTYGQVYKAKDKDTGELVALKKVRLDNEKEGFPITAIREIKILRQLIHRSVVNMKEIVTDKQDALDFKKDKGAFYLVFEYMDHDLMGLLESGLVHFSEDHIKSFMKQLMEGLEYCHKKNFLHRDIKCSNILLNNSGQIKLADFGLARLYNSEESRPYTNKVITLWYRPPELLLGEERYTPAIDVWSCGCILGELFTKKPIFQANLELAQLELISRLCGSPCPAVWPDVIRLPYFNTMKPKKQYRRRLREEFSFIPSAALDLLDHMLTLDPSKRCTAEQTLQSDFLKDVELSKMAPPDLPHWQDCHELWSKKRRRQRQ
T1 sequence (O75909 1-267 partner): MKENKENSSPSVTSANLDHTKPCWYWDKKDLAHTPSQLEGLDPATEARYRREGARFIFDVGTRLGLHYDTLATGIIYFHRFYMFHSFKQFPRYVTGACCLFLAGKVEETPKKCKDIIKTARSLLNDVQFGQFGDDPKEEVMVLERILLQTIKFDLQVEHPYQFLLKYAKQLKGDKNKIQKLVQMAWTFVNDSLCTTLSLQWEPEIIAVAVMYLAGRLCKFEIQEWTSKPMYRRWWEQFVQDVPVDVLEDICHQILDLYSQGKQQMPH
T1 sequence (Q16531 whole entry): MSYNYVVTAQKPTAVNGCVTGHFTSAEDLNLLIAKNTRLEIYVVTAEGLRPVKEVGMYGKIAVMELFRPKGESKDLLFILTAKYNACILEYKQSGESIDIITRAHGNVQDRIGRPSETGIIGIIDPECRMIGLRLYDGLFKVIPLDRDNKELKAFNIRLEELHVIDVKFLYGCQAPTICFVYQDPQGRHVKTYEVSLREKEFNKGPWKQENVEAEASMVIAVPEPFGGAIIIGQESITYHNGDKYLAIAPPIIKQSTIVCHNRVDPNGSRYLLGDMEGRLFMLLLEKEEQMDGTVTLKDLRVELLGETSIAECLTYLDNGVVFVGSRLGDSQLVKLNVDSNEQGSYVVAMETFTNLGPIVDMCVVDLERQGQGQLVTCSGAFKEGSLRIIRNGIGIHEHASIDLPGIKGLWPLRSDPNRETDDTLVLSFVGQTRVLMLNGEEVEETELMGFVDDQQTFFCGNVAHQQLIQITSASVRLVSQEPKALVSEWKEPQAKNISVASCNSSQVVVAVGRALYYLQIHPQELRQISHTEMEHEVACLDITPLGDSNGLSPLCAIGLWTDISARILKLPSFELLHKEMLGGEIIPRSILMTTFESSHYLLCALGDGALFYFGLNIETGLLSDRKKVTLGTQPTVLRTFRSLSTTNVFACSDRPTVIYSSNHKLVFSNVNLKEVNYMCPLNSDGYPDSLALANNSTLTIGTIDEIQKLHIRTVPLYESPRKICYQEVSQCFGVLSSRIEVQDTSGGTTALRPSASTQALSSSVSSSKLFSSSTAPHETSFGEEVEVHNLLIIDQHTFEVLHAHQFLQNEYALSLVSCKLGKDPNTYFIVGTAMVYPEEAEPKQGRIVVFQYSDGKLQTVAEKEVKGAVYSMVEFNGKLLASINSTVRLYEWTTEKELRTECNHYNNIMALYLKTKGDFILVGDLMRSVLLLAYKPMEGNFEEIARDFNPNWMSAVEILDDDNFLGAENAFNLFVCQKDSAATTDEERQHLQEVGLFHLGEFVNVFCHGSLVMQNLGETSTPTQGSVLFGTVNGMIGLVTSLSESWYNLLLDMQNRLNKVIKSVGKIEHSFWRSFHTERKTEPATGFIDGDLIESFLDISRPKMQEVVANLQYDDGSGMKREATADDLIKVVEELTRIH
Outline: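 Read-out used a 70 μs delay to cut background fluorescence; TR-FRET signal taken as the 520 nm/490 nm emission ratio.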

CDK12–cyclin K and DDB1 [2] = target: T1, CDK12–cyclin K and DDB1; assay: TR-FRET Kd determination, quadratic fit, 50 nM or 10 nM CDK12–cyclin K; format: binding; details: for Kd: n = 1
Excerpt: Equation (2) is a quadratic binding equation used for Kd determination,where Top and Bottom refer to the curve plateaus. […]

[3] = test system: cyclin K–eGFP degradation reporter; assay: Cyclin K reporter stability analysis (dual-color cyclin K–eGFP reporter); format: cell-based, human; details: Supplementary Table 2; HEK293T cycK-eGFP reporter, 5 h; read-out: Cellular assays DC50
Outline: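 Readout: flow-cytometric eGFP/mCherry ratio (geometric means, round mCherry+ gate) relative to the average of three DMSO wells. Reporter line was HEK293T–Cas9, treated 5 h with compound.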

HEK293T cells = assay: Drug sensitivity assay (CellTiter-Glo viability) with or without MLN4924 pretreatment; format: cell-based, human; details: for EC50: Homo sapiens, HEK-293T
Outline: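 HEK293T–Cas9 cells at 0.15 × 10^6 ml^−1 were treated with DMSO or 100 nM MLN4924 before plating. Test drugs were added 2 h later and exposure lasted 3 days. Viability was read by CellTiter-Glo luminescence and expressed relative to DMSO controls.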

**Q.** For CCC(CO)Nc1nc(NCc2ccc(-c3ccccc3)cc2)c2ncn(C(C)C)c2n1 (centres unmarked) [DS16], which “TR-FRET signal, individual replicate” value (CDK12–cyclin K and DDB1 [1]; compound concentration 0.468 nM) is on record?
**A.** The value was 0.2708 and 0.2758 and 0.8924 and 0.6371.

**Q.** And the “TR-FRET signal, individual replicate” value (CDK12–cyclin K and DDB1 [1]; compound concentration 2.16 nM)?
**A.** The value was 0.3875 and 0.4113 and 0.3298 and 0.5644.

**Q.** What about the “TR-FRET signal, individual replicate” value (CDK12–cyclin K and DDB1 [1]; compound concentration 3.6 nM) of the same compound?
**A.** Its value is 0.6563 and 0.6817 and 0.5785 and 0.7591.

**Q.** And the “TR-FRET signal, individual replicate” value (CDK12–cyclin K and DDB1 [1]; compound concentration 7.92001 nM)?
**A.** The value was 1.219 and 1.2973 and 0.9793 and 1.183.

**Q.** And the “TR-FRET signal, individual replicate” value (CDK12–cyclin K and DDB1 [1]; compound concentration 15.84 nM)?
**A.** The value was 2.2073 and 2.2521 and 2.043 and 2.171.

**Q.** What about the “TR-FRET signal, individual replicate” value (CDK12–cyclin K and DDB1 [1]; compound concentration 30.96 nM) of the same compound?
**A.** The value was 3.25 and 3.347 and 3.281 and 3.173.

**Q.** What about the “TR-FRET signal, individual replicate” value (CDK12–cyclin K and DDB1 [1]; compound concentration 62.6401 nM) of the same compound?
**A.** The value was 3.39 and 3.868 and 3.793 and 3.73.

**Q.** And the “TR-FRET signal, individual replicate” value (CDK12–cyclin K and DDB1 [1]; compound concentration 125.28 nM)?
**A.** The value was 3.865 and 4.101 and 4.033 and 4.091.

**Q.** And the “TR-FRET signal, individual replicate” value (CDK12–cyclin K and DDB1 [1]; compound concentration 244.8 nM)?
**A.** Its value is 3.936 and 4.169 and 4.142 and 4.064.

**Q.** And the “TR-FRET signal, individual replicate” value (CDK12–cyclin K and DDB1 [1]; compound concentration 993.601 nM)?
**A.** The value was 4.054 and 4.241 and 4.216 and 4.146.

**Q.** And the “TR-FRET signal, individual replicate” value (CDK12–cyclin K and DDB1 [1]; compound concentration 2001.6 nM)?
**A.** The value was 3.9849 and 4.219 and 4.148 and 4.067.

**Q.** And the “DDB1–CDK12 complex formation, result in words” value (CDK12–cyclin K and DDB1 [1]; in vitro TR-FRET)?
**A.** Its value is “activity equivalent to CR8”.

**Q.** And the EC50 (CDK12–cyclin K and DDB1 [1]; in vitro complex formation, 50 nM CDK12–cyclin K, 100 nM DDB1, text and figures, read-out: TR-FRET EC50)?
**A.** Its EC50 is 0.017 ± 0.001 µM.

**Q.** And the EC50 (CDK12–cyclin K and DDB1 [1]; sheet MOESM7, read-out: log TR-FRET EC50 (converted))?
**A.** The EC50 was 0.0167 µM.

**Q.** What about the EC50 (CDK12–cyclin K and DDB1 [1]; source data sheet correlations, read-out: TR-FRET EC50) of the same compound?
**A.** The EC50 was 0.0167 µM.

**Q.** What about the Kd (CDK12–cyclin K and DDB1 [2]; 10 nM CDK12-cyclin K + 100 nM DDB1) of the same compound?
**A.** The Kd was 0.004 ± 0.001 µM.

**Q.** What about the TR-FRET signal (CDK12–cyclin K and DDB1 [2]; 10 nM CDK12-cyclin K, compound 0.468 nM) of the same compound?
**A.** Its TR-FRET signal is 0.1087.

**Q.** What about the TR-FRET signal (CDK12–cyclin K and DDB1 [2]; 10 nM CDK12-cyclin K, compound 2.16 nM) of the same compound?
**A.** The TR-FRET signal was 0.1516.

**Q.** And the TR-FRET signal (CDK12–cyclin K and DDB1 [2]; 10 nM CDK12-cyclin K, compound 3.6 nM)?
**A.** The TR-FRET signal was 0.2175.

**Q.** What about the TR-FRET signal (CDK12–cyclin K and DDB1 [2]; 10 nM CDK12-cyclin K, compound 7.92 nM) of the same compound?
**A.** Its TR-FRET signal is 0.2964.

**Q.** What about the TR-FRET signal (CDK12–cyclin K and DDB1 [2]; 10 nM CDK12-cyclin K, compound 15.84 nM) of the same compound?
**A.** The TR-FRET signal was 0.3471.

**Q.** And the TR-FRET signal (CDK12–cyclin K and DDB1 [2]; 10 nM CDK12-cyclin K, compound 30.96 nM)?
**A.** The TR-FRET signal was 0.4043.

**Q.** What about the TR-FRET signal (CDK12–cyclin K and DDB1 [2]; 10 nM CDK12-cyclin K, compound 62.6399 nM) of the same compound?
**A.** The TR-FRET signal was 0.4639.

**Q.** And the TR-FRET signal (CDK12–cyclin K and DDB1 [2]; 10 nM CDK12-cyclin K, compound 125.279 nM)?
**A.** Its TR-FRET signal is 0.4363.

**Q.** What about the TR-FRET signal (CDK12–cyclin K and DDB1 [2]; 10 nM CDK12-cyclin K, compound 244.8 nM) of the same compound?
**A.** The TR-FRET signal was 0.4586.

**Q.** What about the TR-FRET signal (CDK12–cyclin K and DDB1 [2]; 10 nM CDK12-cyclin K, compound 993.6 nM) of the same compound?
**A.** Its TR-FRET signal is 0.4753.

**Q.** And the TR-FRET signal (CDK12–cyclin K and DDB1 [2]; 10 nM CDK12-cyclin K, compound 2001.6 nM)?
**A.** The TR-FRET signal was 0.4769.

**Q.** And the Kd (CDK12–cyclin K and DDB1 [2]; 50 nM CDK12-cyclin K + 100 nM DDB1)?
**A.** The Kd was 0.006 ± 0.002 µM.

**Q.** And the TR-FRET signal (CDK12–cyclin K and DDB1 [2]; 50 nM CDK12-cyclin K, compound 0.468 nM)?
**A.** Its TR-FRET signal is 0.2249.

**Q.** What about the TR-FRET signal (CDK12–cyclin K and DDB1 [2]; 50 nM CDK12-cyclin K, compound 2.16 nM) of the same compound?
**A.** Its TR-FRET signal is 0.2842.

**Q.** And the TR-FRET signal (CDK12–cyclin K and DDB1 [2]; 50 nM CDK12-cyclin K, compound 3.6 nM)?
**A.** Its TR-FRET signal is 0.3938.

**Q.** And the TR-FRET signal (CDK12–cyclin K and DDB1 [2]; 50 nM CDK12-cyclin K, compound 7.92 nM)?
**A.** The TR-FRET signal was 0.6539.

**Q.** What about the TR-FRET signal (CDK12–cyclin K and DDB1 [2]; 50 nM CDK12-cyclin K, compound 15.84 nM) of the same compound?
**A.** The TR-FRET signal was 1.0227.

**Q.** And the TR-FRET signal (CDK12–cyclin K and DDB1 [2]; 50 nM CDK12-cyclin K, compound 30.96 nM)?
**A.** The TR-FRET signal was 1.706.

**Q.** What about the TR-FRET signal (CDK12–cyclin K and DDB1 [2]; 50 nM CDK12-cyclin K, compound 62.6399 nM) of the same compound?
**A.** Its TR-FRET signal is 2.089.

**Q.** And the TR-FRET signal (CDK12–cyclin K and DDB1 [2]; 50 nM CDK12-cyclin K, compound 125.279 nM)?
**A.** The TR-FRET signal was 2.303.

**Q.** What about the TR-FRET signal (CDK12–cyclin K and DDB1 [2]; 50 nM CDK12-cyclin K, compound 244.8 nM) of the same compound?
**A.** Its TR-FRET signal is 2.498.

**Q.** What about the TR-FRET signal (CDK12–cyclin K and DDB1 [2]; 50 nM CDK12-cyclin K, compound 993.6 nM) of the same compound?
**A.** The TR-FRET signal was 2.704.

**Q.** And the TR-FRET signal (CDK12–cyclin K and DDB1 [2]; 50 nM CDK12-cyclin K, compound 2001.6 nM)?
**A.** The TR-FRET signal was 2.6928.

**Q.** And the DC50 [3]?
**A.** Its DC50 is 1.03 µM.

**Q.** What about the EC50 (HEK293T cells; Supplementary Fig. 5, HEK293T, CellTiter Glo, 72h, pre-treatment with 100 nM MLN4924, read-out: Viability EC50, with MLN4924) of the same compound?
**A.** Its EC50 is 15 µM.

**Q.** And the EC50 (HEK293T cells; Supplementary Table 2, HEK293T viability, 72 h, compound alone, read-out: Cellular assays EC50)?
**A.** Its EC50 is 0.6 µM.

**Q.** What about the “% MLN4924 rescue” value (HEK293T cells; PCA input) of the same compound?
**A.** The value was 1490%.

**Q.** What about the Toxicity rescue (HEK293T cells; Supplementary Table 2, MLN4924-mediated cytotoxicity rescue, 10 µM used where n.d.) of the same compound?
**A.** Its Toxicity rescue is 1567%.
